Results: paper PMC4038554, “Human CD4^+ T Cell Responses to the Dog Major Allergen Can f 1 and Its Human Homologue Tear Lipocalin Resemble Each Other” (PLoS ONE, 2014)
Where “and” joins values, the source holds several entries; their conditions need not be identical. Equal values may be shown once.

Tests used:
DRB5 = experiment: HLA class II peptide-binding assay (competitive ELISA); design: species or system human
[1] = test system: CD25-depleted PBMCs (CD4+ T cells); experiment: Generation of peptide-specific CD4+ T cell lines with the split-well method (frequency of specific TCLs); format: cell-based, human; conditions: for estimated average precursor frequency of peptide-specific T cells: estimated from TCL frequencies, assuming 30% CD4+ T cells in PBMCs; for positive specific TCLs out of 30 replicate wells per subject: peptides at 2 µM, 10^5 PBMCs per well, mean±SEM, SEM
Procedure: After isolating peripheral-blood mononuclear cells (PBMCs) by Ficoll-Paque Plus density gradient centrifugation (GE Healthcare Biosciences, Uppsala, Sweden), CD4^+CD25high regulatory T cells were depleted with anti-CD25-magnetic beads (Miltenyi Biotec, Bergisch Gladbach, Germany), to enhance the induction of both autoreactive and allergen-reactive CD4^+ T cell responses, as previously described, [34].The CD25-depleted PBMCs were seeded in 96-well U-bottomed plates (Corning Incorporated, Corning, USA; 10^5 PBMCs per well) in the presence of pooled Can f 1 or TL peptides (each peptide at 2 µM, 30 wells per a peptide pool), or the HA peptide (30 wells) in a 150 µl volume of RPMI 1640 culture medium supplemented with 2 mM L-glutamine, 20 µM 2-mercaptoethanol, 1 mM sodium pyruvate, nonessential amino acids, 100 IU/ml penicillin, 100 µg/ml streptomycin, 10 mM HEPES (all from Lonza, Verviers, Belgium) and 5% inactivated human AB serum (Sigma-Aldrich, St. Louis, MO). On day 5, 50 µl of fresh medium supplemented with 10 IU/ml of IL-2 (Strathmann Biotech, Hannover, Germany) was added to the cultures. On day 7, half of the culture medium was replaced without IL-2. On day 10, half of the cells in the cultures were split into daughter plates for testing specificity by stimulating the cells with or without the pooled peptides (each peptide at 2 µM) together with autologous γ-irradiated (3000 rad) PBMCs (5×10^5) as antigen-presenting cells. After an incubation of 72 h, [3H]thymidine was added (1 µCi per well; GE Healthcare, Little Chalfont, UK), and after an additional 16 h, the cells were harvested onto glass fiber filters on day 14 (Wallac, Turku, Finland). Radioactivity was measured by scintillation counting (Wallac Micro Beta 1540) and the results were expressed as counts per minute (CPM). The stimulation indices (SI; CPM in the presence of antigen divided by CPM in the absence of antigen) and CPM differences between stimulated and unstimulated wells (ΔCPM) were determined. On the same day, positive cultures (ΔCPM>2000 and SI>2) were restimulated in 48-well plates with autologous γ-irradiated PBMCs (10^6/well), 2 µM of the peptides and 25 IU/ml of IL-2. On day 28, the established TCLs were propagated once more with peptides, IL-2 and PBMCs. After stimulations, half of the culture medium was replaced with fresh medium supplemented with IL-2 every 2–3 days. The peptide specificity of TCLs was defined as described below.
T cell proliferation assays were set in duplicates in 96-well U-bottomed plates with 2.5×10^4 cultured T cells, 5×10^4 autologous γ-irradiated (3000 rad) PBMCs as APCs, and antigens as indicated. In order to determine the epitope specificity of the established TCLs induced with peptide pools, the T cell lines were tested with each of the three individual peptides in the pool at 10 µM on day 28. Proliferation was measured by radionuclide uptake (see above). […] On day 42, peptide-specific TCLs were tested with individual Can f 1 peptides, as well as their TL homologues, at several concentrations up to 10 µM. The functional T cell receptor (TCR) avidities of the TCLs for a peptide were assessed by determining effective concentration 50 (EC50) values (i.e., the concentration of a peptide needed to induce a half-maximal proliferative response) from the dose-response curves of individual TCLs.

DRB3 = experiment: HLA class II peptide-binding assay (competitive ELISA); design: species or system human
[2] = test system: peptide-specific CD4+ T cell lines; experiment: Proliferation assay, functional TCR avidity (EC50) of peptide-specific TCLs; format: cell-based, human
DRB4 = experiment: HLA class II peptide-binding assay (competitive ELISA); design: species or system human

PKYVKQNTLKLAT [HA, influenza hemagglutinin (HA) peptide (amino acids 306–318), viral control peptide, reference compound]
relative binding ratio (IC50 of the test peptide divided by IC50 of the reference peptide) (DRB5): 1 | estimated average precursor frequency of peptide-specific T cells ([1]; allergic subjects): 4.2 per 10^6 CD4^+ T cells | positive specific TCLs out of 30 replicate wells per subject ([1]; allergic subjects): 12.68±10.98% | estimated average precursor frequency of peptide-specific T cells ([1]; nonallergic subjects): 2.9 per 10^6 CD4^+ T cells | positive specific TCLs out of 30 replicate wells per subject ([1]; nonallergic subjects): 8.60±13.37% | relative binding ratio (IC50 of the test peptide divided by IC50 of the reference peptide) (DRB3): > 167 | percentage of high-avidity (EC50<0.1 µM) TCLs [2]: 25.0% and 22.6% | relative binding ratio (IC50 of the test peptide divided by IC50 of the reference peptide) (DRB4): > 1 179
